Reference: the supplement of paper PMC10307832

Legend:
Assay in all cases: relative viability (nuclei count vs DMSO), 5 days (fraction); higher = more cells survive
[1] = compound: C=CC(=O)N1CCC[C@@H](n2nc(-c3ccc(Oc4ccccc4)cc3)c3c(N)ncnc32)C1 [Ibrutinib] + CS(=O)(=O)N1CCN(Cc2cc3nc(-c4cccc5[nH]ncc45)nc(N4CCOCC4)c3s2)CC1 [Pictilisib] (partner 1 µM)
Method in brief: (§1)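 Lung cancer cell lines were pin-tool dosed in 1536-well plates on the day after seeding, with either a lone drug or a fixed anchor-drug dose plus five library-drug doses (not always all listed) in √10 steps. Nuclei were counted on 4× images after 5 days. Relative viability is the ratio of treated-well to vehicle-well nuclei counts, with each value a median of duplicate plates.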

[2] = compound: C=CC(=O)Nc1cc(-n2c(=O)ccc3cnc4ccc(-c5ccc(NS(C)(=O)=O)cc5)cc4c32)ccc1C [BMX-IN-1] + CS(=O)(=O)CCNCc1ccc(-c2ccc3ncnc(Nc4ccc(OCc5cccc(F)c5)c(Cl)c4)c3c2)o1 [Lapatinib] (partner 2 µM)
Method in brief: as §1

[3] = compound: C=CC(=O)Nc1cc(-n2c(=O)ccc3cnc4ccc(-c5ccc(NS(C)(=O)=O)cc5)cc4c32)ccc1C [BMX-IN-1] + N=C(N)NC(=N)NCCc1ccccc1 [Phenformin] (partner 250 µM)
Method in brief: as §1

[4] = compound: C=CCc1cccc(/C=N/NC(=O)CN2CCN(Cc3ccccc3)CC2)c1O [PAC-1] + C[C@@H](Oc1cc(-c2cnn(C3CCNCC3)c2)cnc1N)c1c(Cl)ccc(F)c1Cl [Crizotinib] (partner 1 µM)
Method in brief: as §1

| Cell Line | relative viability ([1]; first compound 0.005 µM) | relative viability ([1]; first compound 0.01581 µM) | relative viability ([1]; first compound 0.05 µM) | relative viability ([1]; first compound 0.1581 µM) | relative viability ([1]; first compound 0.5 µM) | relative viability ([2]; first compound 0.02 µM) | relative viability ([2]; first compound 0.2 µM) | relative viability ([2]; first compound 0.6325 µM) | relative viability ([2]; first compound 2 µM) | relative viability ([3]; first compound 0.02 µM) | relative viability ([3]; first compound 0.2 µM) | relative viability ([3]; first compound 0.6325 µM) | relative viability ([3]; first compound 2 µM) | relative viability ([4]; first compound 0.02 µM) | relative viability ([4]; first compound 0.06325 µM) | relative viability ([4]; first compound 0.2 µM) | relative viability ([4]; first compound 2 µM) |
| --- | --- | --- | --- | --- | --- | --- | --- | --- | --- | --- | --- | --- | --- | --- | --- | --- | --- |
| 201T | 0.581 | 0.704 | 0.66 | 0.616 | 0.598 | 1.03 | 1.04 | 1.05 | 1.05 | 0.519 | 0.464 | 0.483 | 0.458 | 1.07 | 1.09 | 1.02 | 1.05 |
| A549 | 0.396 | 0.416 | 0.521 | 0.586 | 0.499 | 1.04 | 1.47 | 1.17 | 1.02 | 0.164 | 1.01 | 0.17 | 0.188 | 0.747 | 0.793 | 0.706 | 0.77 |
| A-427 | 0.553 | 0.623 | 0.719 | 0.405 | 0.743 | 1.21 | 0.995 | 1.17 | 1.06 | 0.192 | 0.324 | 0.348 | 0.37 | 0.896 | 1.01 | 0.797 | 0.836 |
| ABC-1 | 0.528 | 0.743 | 0.716 | 0.513 | 0.615 | 1.46 | 1.23 | 1.16 | 1.28 | 0.227 | 0.232 | 0.243 | 0.229 | 1.09 | 1.16 | 1.11 | 1.34 |
| BEN | 0.347 | 0.535 | 0.518 | 0.5 | 0.536 | 0.829 | 0.891 | 0.729 | 0.724 | 0.264 | 0.259 | 0.273 | 0.254 | 0.92 | 0.882 | 0.804 | 0.832 |
| CAL-12T | 0.232 | 0.448 | 0.394 | 0.355 | 0.495 | 0.692 | 0.722 | 0.795 | 0.613 | 0.59 | 0.544 | 0.579 | 0.54 | 0.72 | 0.828 | 0.551 | 0.578 |
| COR-L23 | 0.626 | 0.742 | 0.885 | 0.925 | 0.729 | 1.65 | 1.47 | 1.17 | 0.941 | 0.499 | 0.553 | 0.46 | 0.48 | 0.646 | 0.607 | 0.599 | 0.624 |
| COR-L 105 | 0.316 | 0.418 | 0.488 | 0.341 | 0.325 | 0.327 | 0.33 | 0.376 | 0.371 | 0.486 | 0.458 | 0.49 | 0.574 | 0.873 | 0.915 | 0.774 | 0.64 |
| Calu-6 | 0.854 | 0.843 | 0.949 | 1.05 | – | 1 | 1.44 | 1.33 | 1.06 | – | – | – | – | 0.728 | 0.823 | 0.8 | 0.867 |
| ChaGo-K-1 | 0.356 | 0.83 | 0.592 | – | 0.956 | – | – | – | – | 0.499 | 0.517 | 0.541 | 0.5 | 1.15 | 1.17 | 1.09 | 1.03 |
| EBC-1 | 0.31 | 0.436 | 0.378 | 0.456 | 0.321 | 0.243 | 0.181 | 0.206 | 0.168 | – | – | – | – | 0.194 | 0.175 | 0.201 | 0.178 |
| EKVX | 0.341 | 0.391 | 0.435 | 0.461 | 0.278 | 0.208 | 0.197 | 0.216 | 0.189 | 0.21 | 0.245 | 0.247 | 0.211 | 1.19 | 1.22 | 0.893 | 0.866 |
| EMC-BAC-2 | 0.43 | 0.521 | 0.604 | 0.525 | 0.522 | 0.985 | 0.997 | 0.991 | 0.887 | 0.553 | 0.573 | 0.56 | 0.515 | 0.771 | 0.709 | 0.796 | 0.72 |
| EPLC-272H | – | 0.291 | 0.299 | 0.194 | 0.267 | 1.03 | 0.929 | 1.14 | 1.08 | 0.263 | 0.339 | 0.345 | 0.281 | – | 0.95 | 0.789 | 0.818 |
| H3255 | 0.389 | 0.397 | 0.263 | 0.415 | 0.14 | 0.207 | 0.206 | 0.207 | 0.222 | 0.327 | 0.357 | 0.782 | 0.374 | 0.936 | 0.848 | 0.82 | 0.825 |
| HARA | 0.185 | 0.515 | 0.383 | 0.412 | 0.232 | 0.997 | 0.842 | 1.01 | 0.69 | 0.413 | 0.619 | 0.489 | 0.409 | 0.955 | 1.03 | 1.01 | 1.06 |
| HCC-15 | 0.646 | 0.678 | 0.731 | 0.361 | 0.711 | 0.933 | 0.955 | 0.985 | 0.984 | 0.501 | 0.591 | 0.531 | 0.506 | 0.788 | 0.878 | 0.785 | 0.82 |
| HCC-44 | 0.593 | 0.467 | 0.527 | 0.599 | 0.694 | 1.07 | 1.28 | 1.22 | 1.11 | 0.321 | 0.269 | 0.251 | 0.262 | 0.809 | 0.797 | 0.807 | 0.772 |
| HCC-78 | 0.199 | 0.202 | 0.177 | 0.159 | 0.172 | 0.812 | 0.835 | 0.663 | 0.878 | 0.726 | 0.761 | 0.834 | 0.697 | 0.343 | 0.34 | 0.362 | 0.337 |
